From the OligoGym collection
HELM strings list units from the 5' end as sugar, base in round brackets, then linkage (d deoxyribose, r ribose, m 2'-O-methyl, p phosphodiester). Strings are as the collection lists them, not checked against the first reports. ss, as = sense and antisense strand; [lna] = locked nucleic acid (LNA); [una] = unlocked nucleic acid; [hna] = hexitol nucleic acid; [s4r] = 4'-thioribose; [fl2r] = 2'-fluoro

Settings: siRNA
Note: test system not given here.

In order of falling target mRNA knockdown:
1. RNA1{m(C)p.m(G)p.m(U)p.m(A)p.m(C)p.m(G)p.r(C)p.r(G)p.r(G)p.r(A)p.r(A)p.r(U)p.r(A)p.r(C)p.r(U)p.r(U)p.r(C)p.r(G)p.r(A)p.r(T)p.r(T)}|RNA2{r(U)p.r(C)p.r(G)p.r(A)p.r(A)p.r(G)p.r(U)p.r(A)p.r(U)p.r(U)p.r(C)p.r(C)p.r(G)p.r(C)p.r(G)p.r(U)p.r(A)p.r(C)p.r(G)p.r(T)p.r(T)}$$$RNA1{StrandType:ss}|RNA2{StrandType:as}$  94.8%
2. RNA1{[s4r](C)p.[s4r](G)p.[s4r](U)p.[s4r](A)p.r(C)p.r(G)p.r(C)p.r(G)p.r(G)p.r(A)p.r(A)p.r(U)p.r(A)p.r(C)p.r(U)p.[s4r](U)p.[s4r](C)p.[s4r](G)p.[s4r](A)p.r(T)p.r(T)}|RNA2{r(U)p.r(C)p.r(G)p.r(A)p.r(A)p.r(G)p.r(U)p.r(A)p.r(U)p.r(U)p.r(C)p.r(C)p.r(G)p.r(C)p.r(G)p.r(U)p.r(A)p.r(C)p.r(G)p.r(T)p.r(T)}$$$RNA1{StrandType:ss}|RNA2{StrandType:as}$  94.7%
3. RNA1{r(G)p.r(A)p.r(C)p.r(G)p.[hna](U)p.r(A)p.r(A)p.[hna](A)p.r(C)p.r(G)p.[hna](G)p.r(C)p.r(C)p.[hna](A)p.r(C)p.r(A)p.r(A)p.r(G)p.[hna](U)p.[hna](U)p.d(T)}|RNA2{r(A)p.r(C)p.r(U)p.r(U)p.r(G)p.r(U)p.r(G)p.r(G)p.r(C)p.r(C)p.r(G)p.r(U)p.r(U)p.r(U)p.r(A)p.r(C)p.r(G)p.r(U)p.r(C)p.r(G)p.r(C)}$$$RNA1{StrandType:ss}|RNA2{StrandType:as}$  87.4%
4. RNA1{r(C)p.r(U)p.r(U)p.r(A)p.r(C)p.r(G)p.r(C)p.r(U)p.r(G)p.r(A)p.r(G)p.r(U)p.r(A)p.r(C)p.r(U)p.r(U)p.r(C)p.r(G)p.r(A)p.r(T)p.r(T)}|RNA2{r(T)p.r(C)p.r(G)p.r(A)p.r(A)p.r(G)p.r(U)p.r(A)p.r(C)p.r(U)p.r(C)p.r(A)p.r(G)p.r(C)p.[lna](G)p.r(U)p.r(A)p.r(A)p.r(G)p.[lna](T)p.[lna](T)}$$$RNA1{StrandType:ss}|RNA2{StrandType:as}$  87%
5. RNA1{r(G)p.r(G)p.r(G)p.r(A)p.r(G)p.r(G)p.r(A)p.r(U)p.[fl2r](G)p.r(A)p.r(C)p.[fl2r](A)p.r(A)p.r(A)p.r(G)p.r(A)p.r(A)p.r(G)p.r(C)p.r(T)p.r(T)}|RNA2{r(G)p.r(C)p.r(U)p.r(U)p.r(C)p.r(U)p.r(U)p.[fl2r](U)p.r(G)p.r(U)p.r(C)p.r(A)p.r(U)p.r(C)p.r(C)p.r(U)p.r(C)p.r(C)p.r(C)p.r(T)p.r(T)}$$$RNA1{StrandType:ss}|RNA2{StrandType:as}$  84%
6. RNA1{[s4r](A)p.[s4r](A)p.[s4r](A)p.[s4r](C)p.r(A)p.r(U)p.r(G)p.r(C)p.r(A)p.r(G)p.r(A)p.r(A)p.r(A)p.r(A)p.r(U)p.r(G)p.r(C)p.r(U)p.r(G)p.r(T)p.r(T)}|RNA2{r(C)p.r(A)p.r(G)p.r(C)p.r(A)p.r(U)p.r(U)p.r(U)p.r(U)p.r(C)p.r(U)p.r(G)p.r(C)p.r(A)p.r(U)p.r(G)p.r(U)p.r(U)p.r(U)p.r(T)p.r(T)}$$$RNA1{StrandType:ss}|RNA2{StrandType:as}$  70.4%
7. RNA1{m(G)p.m(A)p.m(G)p.m(G)p.m(A)p.m(A)p.m(G)p.m(A)p.r(U)p.m(G)p.m(A)p.m(G)p.r(U)p.r(U)p.m(G)p.r(U)p.m(A)p.r(C)p.r(C)p.r(T)p.r(T)}|RNA2{r(G)p.r(G)p.r(U)p.r(A)p.r(C)p.r(A)p.r(A)p.r(C)p.r(U)p.r(C)p.r(A)p.r(U)p.r(C)p.r(U)p.r(U)p.r(C)p.r(C)p.r(U)p.r(C)p.r(T)p.r(T)}$$$RNA1{StrandType:ss}|RNA2{StrandType:as}$  70%
8. RNA1{[fl2r](C)p.r(U)p.[fl2r](C)p.r(U)p.[fl2r](C)p.r(C)p.[fl2r](U)p.r(A)p.[fl2r](C)p.r(C)p.[fl2r](U)p.r(U)p.[fl2r](C)p.r(U)p.[fl2r](C)p.r(C)p.[fl2r](U)p.r(C)p.[fl2r](U)p.r(T)p.r(T)}|RNA2{r(A)p.r(G)p.r(A)p.r(G)p.r(G)p.r(A)p.r(G)p.r(A)p.r(A)p.r(G)p.r(G)p.r(U)p.r(A)p.r(G)p.r(G)p.r(A)p.r(G)p.r(A)p.r(G)p.r(T)p.r(T)}$$$RNA1{StrandType:ss}|RNA2{StrandType:as}$  69%
9. RNA1{r(A)p.r(C)p.r(G)p.r(U)p.r(C)p.r(A)p.r(C)p.r(C)p.r(G)p.r(A)p.r(G)p.r(G)p.r(A)p.r(G)p.r(A)p.r(A)p.r(G)p.m(U)p.r(A)p.r(T)p.r(T)}|RNA2{r(U)p.r(A)p.r(C)p.r(U)p.r(U)p.r(C)p.r(U)p.r(C)p.r(C)p.r(U)p.r(C)p.r(G)p.r(G)p.r(U)p.r(G)p.r(A)p.r(C)p.r(G)p.r(U)p.r(T)p.r(T)}$$$RNA1{StrandType:ss}|RNA2{StrandType:as}$  69%
10. RNA1{r(C)p.r(G)p.r(G)p.r(A)p.r(U)p.r(C)p.m(U)p.r(A)p.r(C)p.r(A)p.r(C)p.r(C)p.r(U)p.r(U)p.r(C)p.r(A)p.r(A)p.r(G)p.r(A)p.r(T)p.r(T)}|RNA2{r(U)p.r(C)p.r(U)p.r(U)p.r(G)p.r(A)p.r(A)p.r(G)p.r(G)p.r(U)p.r(G)p.m(U)p.r(A)p.r(G)p.r(A)p.r(U)p.r(C)p.r(C)p.r(G)p.r(T)p.r(T)}$$$RNA1{StrandType:ss}|RNA2{StrandType:as}$  69%
11. RNA1{r(A)p.r(G)p.r(A)p.r(G)p.r(A)p.r(A)p.r(G)p.r(G)p.r(G)p.r(C)p.r(G)p.r(U)p.r(C)p.r(U)p.r(C)p.r(U)p.[fl2r](A)p.r(C)p.r(A)p.r(T)p.r(T)}|RNA2{r(U)p.r(G)p.[fl2r](U)p.r(A)p.r(G)p.r(A)p.r(G)p.r(A)p.r(C)p.r(G)p.r(C)p.r(C)p.r(C)p.r(U)p.r(U)p.r(C)p.r(U)p.r(C)p.r(U)p.r(T)p.r(T)}$$$RNA1{StrandType:ss}|RNA2{StrandType:as}$  69%
12. RNA1{r(G)p.r(A)p.r(U)p.r(U)p.r(C)p.m(C)p.r(A)p.r(A)p.r(A)p.r(C)p.r(C)p.r(C)p.r(C)p.r(A)p.r(C)p.m(U)p.r(A)p.r(U)p.r(C)p.r(T)p.r(T)}|RNA2{r(G)p.r(A)p.r(U)p.r(A)p.r(G)p.r(U)p.r(G)p.r(G)p.r(G)p.r(G)p.r(U)p.r(U)p.r(U)p.r(G)p.r(G)p.r(A)p.r(A)p.r(U)p.r(C)p.r(T)p.r(T)}$$$RNA1{StrandType:ss}|RNA2{StrandType:as}$  67%
13. RNA1{r(C)p.r(U)p.r(A)p.r(A)p.r(G)p.r(G)p.r(A)p.r(C)p.r(C)p.r(U)p.r(A)p.r(A)p.r(C)p.r(A)p.r(A)p.r(A)p.r(G)p.r(U)p.[una](U)p.r(U)p.r(U)}|RNA2{r(A)p.r(A)p.r(C)p.r(U)p.r(U)p.r(U)p.r(G)p.r(U)p.r(U)p.r(A)p.r(G)p.r(G)p.r(U)p.r(C)p.r(C)p.r(U)p.r(U)p.r(A)p.r(G)p.r(U)p.r(U)}$$$RNA1{StrandType:ss}|RNA2{StrandType:as}$  60%
14. RNA1{[s4r](A)p.[s4r](A)p.r(A)p.r(C)p.r(A)p.r(U)p.r(G)p.r(C)p.r(A)p.r(G)p.r(A)p.r(A)p.r(A)p.r(A)p.r(U)p.r(G)p.r(C)p.r(U)p.r(G)p.r(T)p.r(T)}|RNA2{[s4r](C)p.[s4r](A)p.r(G)p.r(C)p.r(A)p.r(U)p.r(U)p.r(U)p.r(U)p.r(C)p.r(U)p.r(G)p.r(C)p.r(A)p.r(U)p.r(G)p.r(U)p.[s4r](U)p.[s4r](U)p.r(T)p.r(T)}$$$RNA1{StrandType:ss}|RNA2{StrandType:as}$  44.8%
15. RNA1{r(A)p.r(G)p.r(G)p.r(A)p.r(C)p.r(G)p.r(G)p.m(U)p.r(A)p.r(C)p.r(U)p.r(U)p.m(U)p.r(C)p.r(G)p.m(A)p.r(A)p.r(A)p.r(G)p.r(T)p.r(T)}|RNA2{r(C)p.r(U)p.r(U)p.r(U)p.r(C)p.r(G)p.r(A)p.r(A)p.r(A)p.r(G)p.m(U)p.r(A)p.r(C)p.r(C)p.r(G)p.r(U)p.r(C)p.r(C)p.r(U)p.r(T)p.r(T)}$$$RNA1{StrandType:ss}|RNA2{StrandType:as}$  44%
16. RNA1{r(A)p.r(A)p.r(G)p.m(G)p.m(A)p.r(G)p.r(A)p.r(U)p.m(C)p.m(A)p.m(A)p.r(C)p.r(A)p.r(U)p.m(U)p.m(U)p.r(U)p.r(C)p.r(A)p.r(T)p.r(T)}|RNA2{m(U)p.m(G)p.m(A)p.r(A)p.r(A)p.m(A)p.m(U)p.m(G)p.r(U)p.r(U)p.r(G)p.m(A)p.m(U)p.m(C)p.r(U)p.r(C)p.m(C)p.m(U)p.m(U)p.r(T)p.r(T)}$$$RNA1{StrandType:ss}|RNA2{StrandType:as}$  38%
17. RNA1{r(G)p.r(G)p.r(G)p.r(A)p.r(G)p.r(G)p.r(A)p.r(U)p.r(G)p.r(A)p.r(C)p.r(A)p.r(A)p.r(A)p.r(G)p.r(A)p.r(A)p.r(G)p.r(C)p.r(T)p.r(T)}|RNA2{r(G)p.[fl2r](C)p.r(U)p.r(U)p.[fl2r](C)p.r(U)p.r(U)p.r(U)p.r(G)p.r(U)p.[fl2r](C)p.r(A)p.r(U)p.[fl2r](C)p.[fl2r](C)p.r(U)p.[fl2r](C)p.[fl2r](C)p.[fl2r](C)p.r(T)p.r(T)}$$$RNA1{StrandType:ss}|RNA2{StrandType:as}$  37%
18. RNA1{m(A)p.r(U)p.m(C)p.r(G)p.m(U)p.r(C)p.m(G)p.r(U)p.m(C)p.r(A)p.m(G)p.r(G)p.m(G)p.m(U)p.r(A)p.m(A)p.r(G)p.m(G)p.r(U)p.r(T)p.r(T)}|RNA2{r(A)p.r(C)p.r(C)p.r(U)p.r(U)p.r(A)p.r(C)p.r(C)p.r(C)p.r(U)p.r(G)p.r(A)p.r(C)p.r(G)p.m(A)p.r(C)p.m(G)p.r(A)p.m(U)p.r(T)p.r(T)}$$$RNA1{StrandType:ss}|RNA2{StrandType:as}$  34%
19. RNA1{[fl2r](G)p.r(G)p.[fl2r](C)p.r(U)p.[fl2r](U)p.r(A)p.[fl2r](G)p.r(U)p.[fl2r](C)p.r(A)p.[fl2r](C)p.r(U)p.[fl2r](C)p.r(C)p.[fl2r](U)p.r(C)p.[fl2r](U)p.r(U)p.[fl2r](C)p.r(T)p.r(T)}|RNA2{r(G)p.r(A)p.r(A)p.r(G)p.r(A)p.r(G)p.r(G)p.r(A)p.r(G)p.r(U)p.r(G)p.r(A)p.r(C)p.r(U)p.r(A)p.r(A)p.r(G)p.r(C)p.r(C)p.r(T)p.r(T)}$$$RNA1{StrandType:ss}|RNA2{StrandType:as}$  23%
20. RNA1{r(G)p.r(A)p.r(C)p.r(G)p.r(U)p.r(A)p.r(A)p.r(A)p.r(C)p.r(G)p.r(G)p.r(C)p.r(C)p.r(A)p.r(C)p.r(A)p.r(A)p.r(G)p.r(U)p.[lna](T)p.[lna](C)}|RNA2{r(A)p.r(C)p.[lna](T)p.r(U)p.r(G)p.[lna](T)p.r(G)p.r(G)p.r(C)p.r(C)p.r(G)p.r(U)p.r(U)p.[lna](T)p.r(A)p.r(C)p.r(G)p.[lna](T)p.r(C)p.[lna](G)p.[lna](C)}$$$RNA1{StrandType:ss}|RNA2{StrandType:as}$  3%
